Laboratory results reported in US10980805B2, “Aza-pyridone compounds and uses thereof” (Janssen BioPharma, Inc., priority 2013, dated 2021).

Experiments:
[1] = target: Full length EN PA (influenza PA endonuclease) (Influenza A virus, UniProt P15659); test: EN PA FRET inhibition assay; type: biochemical; settings: FRET probe, mean of a minimum of two independent experiments, read-out: Potency (IC50 class, Table 3)
[2] = tested on: Influenza strain A549_A/WSN/33 (H1N1); test: Influenza antiviral assay (neuraminidase fluorescence readout); type: cell-based, Influenza virus; settings: Influenza A virus, read-out: % Inhibition (EC50 class, Table 2)

| Compound | IC50 [1] | EC50 [2] |
| --- | --- | --- |
| CN1CC(C2c3ccccc3CCc3cc(Cl)ccc32)n2ncc(=O)c(O)c2C1=O (centres unmarked) [Compound 29] | < 0.25 µM | < 20 µM |
| CC(C)N1CC(=C2c3ccccc3CCc3ccccc32)n2ncc(=O)c(O)c2C1=O [Compound 30] | < 0.25 µM | 20 to 100 µM |
| CN1CC(C2c3ccc(Cl)cc3CCc3cc(Cl)ccc32)n2ncc(=O)c(O)c2C1=O (centres unmarked) [Compound 31] | < 0.25 µM | < 20 µM |
| CN1CC(C(c2ccccc2)c2ccc(Cl)cc2)n2ncc(=O)c(O)c2C1=O (centres unmarked) [Compound 32] | < 0.25 µM | < 20 µM |
| C[C@H](N1C[C@H](C2c3ccccc3CCc3ccccc32)n2ncc(=O)c(O)c2C1=O)C(F)(F)F [Compound 33-A] | < 0.25 µM | < 20 µM |
| C[C@@H](N1C[C@@H](C2c3ccccc3CCc3ccccc32)n2ncc(=O)c(O)c2C1=O)C(F)(F)F [Compound 33-B] | < 0.25 µM | < 20 µM |
| CCN1CC(C(c2ccccc2)c2cccc(OC)c2)n2ncc(=O)c(O)c2C1=O (centres unmarked) [Compound 34] | < 0.25 µM | < 20 µM |
| C[C@H](N1CC(C(c2ccccc2)c2ccccc2)n2ncc(=O)c(O)c2C1=O)C(F)(F)F (some centres unmarked) [Compound 35-A] | < 0.25 µM | < 20 µM |
| C[C@@H](N1CC(C(c2ccccc2)c2ccccc2)n2ncc(=O)c(O)c2C1=O)C(F)(F)F (some centres unmarked) [Compound 35-B] | 0.25 to 1 µM | < 20 µM |
| CCN1C[C@@H](C(c2cccc(C)c2)c2cccc(C)c2)n2ncc(=O)c(O)c2C1=O [Compound 36-B] | ≥ 1 µM | < 20 µM |
| CCN1CC(C(c2cccc(C)c2)c2cccc(C)c2)n2ncc(=O)c(O)c2C1=O (centres unmarked) [Compound 36] | < 0.25 µM | < 20 µM |
| CCCN1C[C@H](C(c2ccccc2)c2ccccc2)n2ncc(=O)c(O)c2C1=O [Compound 37-A] | < 0.25 µM | < 20 µM |
| CN1CC(C(c2ccc(F)cc2)c2ccc(F)cc2)n2ncc(=O)c(O)c2C1=O (centres unmarked) [Compound 38] | < 0.25 µM | < 20 µM |
| CCN1C[C@@H](C(c2cccc(Cl)c2)c2cccc(Cl)c2)n2ncc(=O)c(O)c2C1=O [Compound 39-B] | 0.25 to 1 µM | < 20 µM |
| CCN1CC(C(c2cccc(Cl)c2)c2cccc(Cl)c2)n2ncc(=O)c(O)c2C1=O (centres unmarked) [Compound 39] | < 0.25 µM | < 20 µM |
| CN1CC(C(c2ccccc2)c2ccc(F)cc2)n2ncc(=O)c(O)c2C1=O (centres unmarked) [Compound 40] | < 0.25 µM | < 20 µM |
| CC(C)N1CC(C(c2cccc(F)c2)c2cccc(F)c2)n2ncc(=O)c(O)c2C1=O (centres unmarked) [Compound 41] | < 0.25 µM | < 20 µM |
| CN1C[C@H](C2c3ccccc3CCc3cccnc32)n2ncc(=O)c(O)c2C1=O (some centres unmarked) [Compound 42-A] | < 0.25 µM | < 20 µM |
| CN1C[C@@H](C2c3ccccc3CCc3cccnc32)n2ncc(=O)c(O)c2C1=O (some centres unmarked) [Compound 42-B] | 0.25 to 1 µM | 20 to 100 µM |
| CN1CC(C2c3ccccc3CCc3cccnc32)n2ncc(=O)c(O)c2C1=O (centres unmarked) [Compound 42] | < 0.25 µM | < 20 µM |
| CN1C[C@H](C2c3cc(F)ccc3CCc3ccc(F)cc32)n2ncc(=O)c(O)c2C1=O [Compound 45-A] | < 0.25 µM | < 20 µM |
| CN1C[C@@H](C2c3cc(F)ccc3CCc3ccc(F)cc32)n2ncc(=O)c(O)c2C1=O [Compound 45-B] | < 0.25 µM | 20 to 100 µM |
| CN1CC(C2c3cc(F)ccc3CCc3ccc(F)cc32)n2ncc(=O)c(O)c2C1=O (centres unmarked) [Compound 45] | < 0.25 µM | < 20 µM |
| CN1C[C@@H](C2c3ccc(Cl)cc3CCc3cc(Cl)ccc32)n2ncc(=O)c(O)c2C1=O [Compound 46-B] | < 0.25 µM | 20 to 100 µM |
| CC(C)N1CC(C(c2ccccc2)c2cccc(F)c2)n2ncc(=O)c(O)c2C1=O (centres unmarked) [Compound 47] | < 0.25 µM | < 20 µM |
| Cc1cccc(C(c2cccc(C)c2)C2CN(C(C)C)C(=O)c3c(O)c(=O)cnn32)c1 (centres unmarked) [Compound 48] | < 0.25 µM | < 20 µM |
| CCN1CC(C(c2ccccc2)c2cccc(C)c2)n2ncc(=O)c(O)c2C1=O (centres unmarked) [Compound 49] | < 0.25 µM | < 20 µM |
| Cc1cccc(C(c2ccccc2)C2CN(C(C)C)C(=O)c3c(O)c(=O)cnn32)c1 (centres unmarked) [Compound 50] | < 0.25 µM | < 20 µM |

| Compound | IC50 [1] | EC50 [2] |
| --- | --- | --- |
| CC(C)N1C[C@H](C2c3cccc(F)c3CCc3c(F)cccc32)n2ncc(=O)c(O)c2C1=O [Compound 51-A] | < 0.25 µM | < 20 µM |
| CC(C)N1CC(C2c3cccc(F)c3CCc3c(F)cccc32)n2ncc(=O)c(O)c2C1=O (centres unmarked) [Compound 51] | < 0.25 µM | < 20 µM |
| CN1C[C@@H](C2c3cc(Cl)ccc3CCc3ccc(Cl)cc32)n2ncc(=O)c(O)c2C1=O [Compound 52-A] | < 0.25 µM | < 20 µM |
| CN1C[C@H](C2c3cc(Cl)ccc3CCc3ccc(Cl)cc32)n2ncc(=O)c(O)c2C1=O [Compound 52-B] | < 0.25 µM | < 20 µM |
| CN1CC(C2c3cc(Cl)ccc3CCc3ccc(Cl)cc32)n2ncc(=O)c(O)c2C1=O (centres unmarked) [Compound 52] | < 0.25 µM | < 20 µM |
| COCCN1C[C@H](C(c2ccccc2)c2ccccc2)n2ncc(=O)c(O)c2C1=O [Compound 53-A] | < 0.25 µM | < 20 µM |
| CC(C)Oc1cccc(C(c2ccccc2)[C@H]2CN(C)C(=O)c3c(O)c(=O)cnn32)c1 (some centres unmarked) [Compound 54] | < 0.25 µM | 20 to 100 µM |
| CN1CC(C(c2ccccc2)c2cccc(OCC3CC3)c2)n2ncc(=O)c(O)c2C1=O (centres unmarked) [Compound 55] | < 0.25 µM | 20 to 100 µM |
| CN1CC(C2c3cc(F)ccc3CCc3c(F)cccc32)n2ncc(=O)c(O)c2C1=O (centres unmarked) [Compound 56] | < 0.25 µM | < 20 µM |
| CN1CC(C2c3ccccc3COc3ccccc32)n2ncc(=O)c(O)c2C1=O (centres unmarked) [Compound 57] | < 0.25 µM | < 20 µM |
| CN1CC(C2c3ccc(F)cc3CCc3c(F)cccc32)n2ncc(=O)c(O)c2C1=O (centres unmarked) [Compound 59-A] | < 0.25 µM | < 20 µM |
| CN1CC(C(c2ccc(Cl)cc2)c2cccc(Cl)c2)n2ncc(=O)c(O)c2C1=O (centres unmarked) [Compound 60] | < 0.25 µM | < 20 µM |
| CN1CC(C(c2ccc(F)cc2)c2cccc(Cl)c2)n2ncc(=O)c(O)c2C1=O (centres unmarked) [Compound 61] | < 0.25 µM | < 20 µM |
| CN1CC(C(c2cccc(Cl)c2)c2ccccc2F)n2ncc(=O)c(O)c2C1=O (centres unmarked) [Compound 62] | < 0.25 µM | < 20 µM |
| O=C1c2c(O)c(=O)cnn2[C@@H](C(c2ccccc2)c2ccccc2)CN1C1CCOCC1 [Compound 63-A] | < 0.25 µM | < 20 µM |
| O=C1c2c(O)c(=O)cnn2[C@H](C(c2ccccc2)c2ccccc2)CN1C1CCOCC1 [Compound 63-B] | 0.25 to 1 µM | < 20 µM |
| O=C1c2c(O)c(=O)cnn2C(C(c2ccccc2)c2ccccc2)CN1C1CCOCC1 (centres unmarked) [Compound 63] | < 0.25 µM | < 20 µM |
| CN1CC(C(c2ccccc2)c2cccc(O)c2)n2ncc(=O)c(O)c2C1=O (centres unmarked) [Compound 64] | < 0.25 µM | < 20 µM |
| CC(C)C(=O)Oc1c2n(ncc1=O)[C@@H](C1c3ccccc3CCc3ccccc31)CN(C)C2=O [Compound 65-A] | < 0.25 µM | < 20 µM |
| CCN1C[C@H]([C@@H](c2ccccc2)c2cccc(Cl)c2)n2ncc(=O)c(OC(=O)C(C)C)c2C1=O [Compound 67-A] | < 0.25 µM | < 20 µM |
| CC(C)N1C[C@@H](C(c2cccc(Cl)c2)c2cccc(Cl)c2)n2ncc(=O)c(O)c2C1=O [Compound 68-B] | 0.25 to 1 µM | < 20 µM |
| CC(C)C(=O)Oc1c2n(ncc1=O)[C@@H](C(c1ccccc1)c1ccccc1)CN(C(C)C)C2=O [Compound 69-A] | < 0.25 µM | < 20 µM |
| CC(C)C(=O)Oc1c2n(ncc1=O)[C@@H](C(c1cccc(F)c1)c1cccc(F)c1)CN(C(C)C)C2=O [Compound 70-A] | < 0.25 µM | < 20 µM |
| CN1C[C@H]([C@@H]2c3cc(F)ccc3CCc3c(F)cccc32)n2ncc(=O)c(O)c2C1=O [Compound 71-A] | < 0.25 µM | < 20 µM |
| CN1C[C@H]([C@H]2c3cc(F)ccc3CCc3c(F)cccc32)n2ncc(=O)c(O)c2C1=O [Compound 71-B] | < 0.25 µM | < 20 µM |
| CN1C[C@@H](C2c3cc(F)ccc3CCc3c(F)cccc32)n2ncc(=O)c(O)c2C1=O (some centres unmarked) [Compound 71] | 0.25 to 1 µM | 20 to 100 µM |
| CCN1C[C@H](C(c2cccc(F)c2)c2cccc(F)c2)n2ncc(=O)c(OC(=O)C(C)C)c2C1=O [Compound 72-A] | < 0.25 µM | < 20 µM |
